Like-named read-outs stand apart in the source and are kept apart here.
What was measured:
[1] = molecular target: T1, sodium iodide symporter (NIS), iodide uptake in FRTL5 cells (Rattus norvegicus, UniProt Q63008); assay: Inhibition of iodide uptake in FRTL5 cells, non radioactive arsenic/cerium assay; assay type: cell-based
T1 construct: endogenous in cells; host or cells: FRTL5 (rat thyroid-derived cells)
T1 sequence (Q63008 1-618): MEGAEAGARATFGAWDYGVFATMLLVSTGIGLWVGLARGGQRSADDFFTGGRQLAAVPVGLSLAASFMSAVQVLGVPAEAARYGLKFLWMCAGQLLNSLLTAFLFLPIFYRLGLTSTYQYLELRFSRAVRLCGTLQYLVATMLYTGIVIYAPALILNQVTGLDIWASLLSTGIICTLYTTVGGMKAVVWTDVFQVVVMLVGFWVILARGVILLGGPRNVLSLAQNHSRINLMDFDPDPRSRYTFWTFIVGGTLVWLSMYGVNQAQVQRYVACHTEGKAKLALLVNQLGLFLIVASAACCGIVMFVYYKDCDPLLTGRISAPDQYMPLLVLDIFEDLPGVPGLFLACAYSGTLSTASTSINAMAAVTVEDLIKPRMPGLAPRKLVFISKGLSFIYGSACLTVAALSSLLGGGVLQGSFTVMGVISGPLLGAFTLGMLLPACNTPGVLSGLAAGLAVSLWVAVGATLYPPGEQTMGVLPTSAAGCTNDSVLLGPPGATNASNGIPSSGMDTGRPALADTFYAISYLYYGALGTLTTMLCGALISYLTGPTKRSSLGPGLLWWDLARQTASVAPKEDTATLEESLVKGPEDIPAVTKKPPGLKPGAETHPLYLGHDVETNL
Description: Some of the synthesized compounds were evaluated for their ability to inhibit iodide entrapment in FRTL5 cells. The IC50 values were measured in at least […] independent experiments.
The biological activity of each compound was determined in FRTL5 cells, using a non radioactive arsenic/cerium assay as described in F. Waltz et al., Anal. Biochem., 2012, 396, 91-95. Compound potency was expressed as IC50, the concentration of compound necessary to achieve 50% inhibition of iodide uptake. Briefly, to FRTL5 cells at 70-90% confluence was added compound (200 μM, 10 μM, 0.5 μM, 25 nM, 1.2 nM, 60 pM, […], and 0.15 pM final), followed by NaI (10 μM final). After 1 hour incubation at 20±1° C., supernatant was removed and the cells were immediately assayed for iodide content using the modified As/Ce Sandell-Kolthoff reaction. NaClO4 was tested in each microplate as assay controls. The IC50 values of all compounds were measured least thrice independently.
Stock solutions of tested compounds were prepared in DMSO (20 mM) and that of NaClO4 in water (20 mM). These stock solutions were stored at 4° C. for up to 2 months. Sample dilutions: the day of the assay, a daughter plate (clear flat-bottomed 96-well polystyrene microplates, Costar 9017) was prepared from 20 mM stock solutions. NaClO4 (column 2) and DHPM samples (columns 4 to 11) were diluted at 10× the final concentration in uptake buffer.
FRTL5 cells were cultured as described in F. S. Ambesi-Impiombato et al., Proc. Natl. Acad. Sci. USA, 1980, 77, 3455-3459. Briefly, FRTL5 cells were cultured in Coon's modified F12 medium supplemented with 5% heat-inactivated fetal bovine serum (Invitrogen), 2 mM L-glutamine, 100 U/mL penicillin, 0.1 mg/mL streptomycin, 10 μg/mL insulin, 10 nM hydrocortisone, 10 ng/mL Gly-His-Lys acetate, 1 mU/mL TSH, 5 μg/mL transferrin at 37° C. and 5% CO2. For iodide uptake assays, 200 μL of FRTL5 cells with density of 250,000 cells/mL were dispensed in each well of clear flat-bottomed 96-well polystyrene microplates (Costar 3628) using the Multidrop 384 (ThermoFisher Scientific), and further cultured until confluence reached 80-90% (3-4 days).
The culture medium of FRTL5 monolayer cells at 80-90% confluence was replaced by uptake buffer (20° C.) via continuous aspiration/dispense cycle (600 μL) using a 96-needle head plate washer PW 384 (Tecan). The 96-needle head was set to a vertical position such that 80 μL of fresh uptake buffer remained in each well at the end of the cycle. The samples (10 μL each) from the daughter plate were transferred all at once to the assay plate using the 96-tip head pipettor Liquidator 96 (Mettler Toledo). Immediately after, 10 μL of a NaI solution at 100 μM was added to each well of the assay plate using the Liquidator 96. The assay plate was left to stand in the dark at 20±1° C. for 60 min. The assay plate was then washed with cold (4° C.) uptake buffer using the PW 384 plate washer and residual supernatant was immediately discarded by inverting the assay plate on absorbent paper.
Sodium iodide standards (S1 to S7) and water (S0) were distributed in duplicate (100 μL each) in the first and last column of the assay plate. Water (100 μL) was added to the columns with the Multidrop 384. 100 μL of the ammonium cerium (IV) sulfate solution (10.5 mM) was distributed into the columns, followed by 100 μL of the sodium arsenite (III) solution (24 mM) using the Multidrop 384. The assay plate was left to stand at 20±1° C. for 30 min. The absorbance at 420 nm (Abs420) was immediately recorded on a SpectraMax Plus 384 (Molecular Devices). A calibration curve was prepared for each plate by plotting the logarithmic conversion of the means of Abs420 (n=2) vs iodide standard concentrations (S0 to S7). The iodide concentrations in the samples were determined after linear regression of the calibration curve.

[2] = Table 1, variations at R1, averaged from three or four independent experiments, NaI 10 μM, 1 hour, 20°C, read-out: IC50 (μM), inhibitory activity against iodide uptake in FRTL5 cells
[3] = Table 2, variations at R5, averaged from three or four independent experiments, NaI 10 μM, 1 hour, 20°C, read-out: IC50 (μM), inhibitory activity against iodide uptake in FRTL5 cells
[4] = Table 3, variations at R2, averaged from three or four independent experiments, NaI 10 μM, 1 hour, 20°C, read-out: IC50 (μM), inhibitory activity against iodide uptake in FRTL5 cells
[5] = Table 5, variations at Y, R1, R3, R4, R5, averaged from two to four independent experiments, NaI 10 μM, 1 hour, 20°C, read-out: IC50 (μM), inhibitory activity against iodide uptake in FRTL5 cells

melting point | IC50 [1, 2] | Structure (SMILES) | further results
164 to 166 °C | 350 nM | COc1ccc(COC(=O)C2=C(C)NC(=O)NC2c2cccc(Br)c2)cc1 (centres unmarked) [Compound 21, 4-Methoxybenzyl 4-(3-bromophenyl)-6-methyl-2-oxo-1,2,3,4-tetrahydropyrimidine-5-carboxylate] | 
180 to 181 °C | 100 nM | COc1ccc(COC(=O)C2=C(C)NC(=O)NC2c2cccc(Cl)c2)cc1 (centres unmarked) [Compound 22, 4-Methoxybenzyl 4-(3-chlorophenyl)-6-methyl-2-oxo-1,2,3,4-tetrahydropyrimidine-5-carboxylate] | 
181 to 183 °C | 65 nM | COc1ccc(COC(=O)C2=C(C)NC(=O)NC2c2ccccc2F)cc1 (centres unmarked) [Compound 23, 4-Methoxybenzyl 4-(2-fluorophenyl)-6-methyl-2-oxo-1,2,3,4-tetrahydropyrimidine-5-carboxylate] | 
173 to 174 °C | 75 nM | COc1ccc(COC(=O)C2=C(C)NC(=O)NC2c2cccc(F)c2)cc1 (centres unmarked) [Compound 24, 4-Methoxybenzyl 4-(3-fluorophenyl)-6-methyl-2-oxo-1,2,3,4-tetrahydropyrimidine-5-carboxylate] | 
172 to 175 °C | 150 nM | COc1ccc(COC(=O)C2=C(C)NC(=O)NC2c2ccc(F)cc2)cc1 (centres unmarked) [Compound 25, 4-Methoxybenzyl 4-(4-fluorophenyl)-6-methyl-2-oxo-1,2,3,4-tetrahydropyrimidine-5-carboxylate] | 
158 to 160 °C | 750 nM | COc1ccc(COC(=O)C2=C(C)NC(=O)NC2C2CC2)cc1 (centres unmarked) [Compound 26, 4-Methoxybenzyl 4-cyclopropyl-6-methyl-2-oxo-1,2,3,4-tetrahydropyrimidine-5-carboxylate] | 
158 to 159 °C | 3.2 nM | COc1ccc(COC(=O)C2=C(C)NC(=O)NC2c2ccco2)cc1 (centres unmarked) [Compound 27, 4-methoxybenzyl 4-(furan-2-yl)-6-methyl-2-oxo-1,2,3,4-tetrahydropyrimidine-5-carboxylate] | 
157 to 159 °C | 20 nM | COc1ccc(COC(=O)C2=C(C)NC(=O)NC2c2ccoc2)cc1 (centres unmarked) [Compound 28, 4-Methoxybenzyl 4-(furan-3-yl)-6-methyl-2-oxo-1,2,3,4-tetrahydropyrimidine-5-carboxylate] | 
 |  | COc1cccc(COC(=O)C2=C(C)NC(=O)NC2c2ccccc2)c1 (centres unmarked) [Compound 37, 3-Methoxybenzyl 6-methyl-2-oxo-4-phenyl-1,2,3,4-tetrahydropyrimidine-5-carboxylate] | IC50 [1, 3]: 50 nM
 |  | CC1=C(C(=O)OCc2ccc3c(c2)OCO3)C(c2ccccc2)NC(=O)N1 (centres unmarked) [Compound 38, Benzo[d][1,3]dioxol-5-ylmethyl 6-methyl-2-oxo-4-phenyl-1,2,3,4-tetrahydropyrimidine-5-carboxylate] | IC50 [1, 3]: 80 nM
 |  | COc1ccc(COC(=O)C2=C(CC(C)C)NC(=O)NC2c2ccccc2)cc1 (centres unmarked) [Compound 41, 4-Methoxybenzyl 2-oxo-6-isobutyl-4-phenyl-1,2,3,4-tetrahydropyrimidine-5-carboxylate] | IC50 [1, 4]: 550 nM
 |  | CCCCCC1=C(C(=O)OCc2ccc(OC)cc2)C(c2ccccc2)NC(=O)N1 (centres unmarked) [Compound 42, 4-Methoxybenzyl 2-oxo-6-pentyl-4-phenyl-1,2,3,4-tetrahydropyrimidine-5-carboxylate] | IC50 [1, 4]: 350 nM
 |  | COc1ccc(COC(=O)C2=C(C3CCCCC3)NC(=O)NC2c2ccccc2)cc1 (centres unmarked) [Compound 43, 4-Methoxybenzyl 6-cyclohexyl-2-oxo-4-phenyl-1,2,3,4-tetrahydropyrimidine-5-carboxylate] | IC50 [1, 4]: 850 nM
 |  | COc1ccc(COC(=O)C2=C(c3ccccc3)NC(=O)NC2c2ccccc2)cc1 (centres unmarked) [Compound 44, 4-Methoxybenzyl 4,6-diphenyl-2-oxo-1,2,3,4-tetrahydropyrimidine-5-carboxylate] | IC50 [1, 4]: 950 nM
 |  | COc1ccc(COC(=O)C2=C(COc3ccccc3)NC(=O)NC2c2ccccc2)cc1 (centres unmarked) [Compound 46, 4-Methoxybenzyl 2-oxo-6-phenoxymethyl-4-phenyl-1,2,3,4-tetrahydropyrimidine-5-carboxylate] | IC50 [1, 4]: 500 nM
 |  | COc1ccc(COC(=O)C2=C(Cc3cccs3)NC(=O)NC2c2ccccc2)cc1 (centres unmarked) [Compound 49, 4-Methoxybenzyl 2-oxo-4-phenyl-6-(thiophen-2-ylmethyl)-1,2,3,4-tetrahydropyrimidine-5-carboxylate] | IC50 [1, 4]: 150 nM
 |  | COc1ccc(COC(=O)C2=C(C)N(C)C(=O)N(C)C2c2ccccc2)cc1 (centres unmarked) [Compound 51, 4-Methoxybenzyl 1,3,6-trimethyl-2-oxo-4-phenyl-1,2,3,4-tetrahydropyrimidine-5-carboxylate] | IC50 ([1]; Table 4, variations at X, R3, R4, averaged from three or four independent experiments, NaI 10 μM, 1 hour, 20°C, read-out: IC50 (μM), inhibitory activity against iodide uptake in FRTL5 cells): 65 nM
 |  | COc1ccc(COC(=O)C2=C(C)N(C)C(=O)N(C)C2c2ccco2)cc1 (centres unmarked) [Compound 54, 4-methoxybenzyl 4-(furan-2-yl)-1,3,6-trimethyl-2-oxo-1,2,3,4-tetrahydropyrimidine-5-carboxylate] | IC50 [1, 5]: 1.6 nM
 |  | COc1cccc(COC(=O)C2=C(C)N(C)C(=O)N(C)C2c2ccco2)c1 (centres unmarked) [Compound 57, 3-methoxybenzyl 4-(furan-2-yl)-1,3,6-trimethyl-2-oxo-1,2,3,4-tetrahydropyrimidine-5-carboxylate] | IC50 [1, 5]: 0.065 nM
 |  | CC1=C(C(=O)OCc2ccc3c(c2)OCO3)C(c2ccco2)N(C)C(=O)N1C (centres unmarked) [Compound 61, benzo[d][1,3]dioxol-5-ylmethyl 4-(furan-2-yl)-1,3,6-trimethyl-2-oxo-1,2,3,4-tetrahydropyrimidine-5-carboxylate] | IC50 [1, 5]: 0.85 nM
 |  | [O-][Cl+3]([O-])([O-])O [Sodium perchlorate, reference compound] | IC50 ([1]; assay control, read-out: IC50, iodide entrapment in FRTL5 cells, assay control): 100 nM

Source: US20150175556A1, “DIHYDROPYRIMIDIN-2(1H)-ONES AND DIHYDROPYRIMIDIN-2(1H)-THIONES AS INHIBITORS OF SODIUM IODIDE SYMPORTER” (COMMISSARIAT A L'ENERGIE ATOMIQUE ET AUX ENERGIES …, priority 2012, published 2015)
